Reference: patent publication US6054435A, “6-O-substituted macrolides having antibacterial activity” (priority 1999, dated 2000)
In brackets after ≈: the same amount, converted by molar mass.

Experiments:
Assay in all cases: in vitro antibacterial activity (MIC), agar dilution
Assay type in all cases: cell-based
[1] = tested on: Staphylococcus aureus A-5278; details: organism code CC; BHI agar, 35-37° C., 20 to 24 hours; unit assumed
Experimental: (§1) Representative compounds of the present invention were assayed in vitro for antibacterial activity as follows: Twelve petri dishes containing successive aqueous dilutions of the test compound mixed with 10 mL of sterilized Brain Heart Infusion (BHI) agar (Difco 0418-01-5) were prepared. Each plate was inoculated with 1:100 (or 1:10 for slow-growing strains, such as Micrococcus and Streptococcus) dilutions of up to 32 different microorganisms, using a Steers replicator block. […] In addition, a control plate, using BHI agar containing no test compound, was prepared and incubated at the beginning and end of each test.
(§2) An additional plate containing a compound having known susceptibility patterns for the organisms being tested and belonging to the same antibiotic class as the test compound was also prepared and incubated as a further control, as well as to provide test-to-test comparability.
(§3) After incubation, each plate was visually inspected. The minimum inhibitory concentration (MIC) was defined as the lowest concentration of drug yielding no growth, a slight haze, or sparsely isolated colonies on the inoculum spot as compared to the growth control.

[2] = tested on: Escherichia coli SS; details: organism code RR; BHI agar, 35-37° C., 20 to 24 hours; unit assumed
Experimental: as §1, §2, §3

[3] = tested on: Streptococcus bovis A-5169; details: organism code JJ; BHI agar, 35-37° C., 20 to 24 hours; unit assumed
Experimental: as §1, §2, §3

[4] = tested on: Staphylococcus epidermidis 3519; details: organism code HH; BHI agar, 35-37° C., 20 to 24 hours; unit assumed
Experimental: as §1, §2, §3

[5] = tested on: Streptococcus pyogenes PIU 2548; details: organism code NN; BHI agar, 35-37° C., 20 to 24 hours; unit assumed
Experimental: as §1, §2, §3

[6] = tested on: Streptococcus Pneumonia 5979; details: organism code ZZ; BHI agar, 35-37° C., 20 to 24 hours; unit assumed
Experimental: as §1, §2, §3

[7] = tested on: Micrococcus luteus ATCC 4698; details: organism code PP; BHI agar, 35-37° C., 20 to 24 hours; unit assumed
Experimental: as §1, §2, §3

[8] = tested on: Mycobacterium smegmatis ATCC 114; details: organism code UU; BHI agar, 35-37° C., 20 to 24 hours; unit assumed
Experimental: as §1, §2, §3

[9] = tested on: Streptococcus pyogenes 930; details: organism code MM; BHI agar, 35-37° C., 20 to 24 hours; unit assumed
Experimental: as §1, §2, §3

[10] = tested on: Streptococcus agalactiae CMX 508; details: organism code KK; BHI agar, 35-37° C., 20 to 24 hours; unit assumed
Experimental: as §1, §2, §3

[11] = tested on: Escherichia coli JUHL; details: organism code QQ; BHI agar, 35-37° C., 20 to 24 hours; unit assumed
Experimental: as §1, §2, §3

[12] = tested on: Streptococcus Pneumonia ATCC6303; details: organism code XX; BHI agar, 35-37° C., 20 to 24 hours; unit assumed
Experimental: as §1, §2, §3

[13] = tested on: Nocardia Asteroides ATCC9970; details: organism code VV; BHI agar, 35-37° C., 20 to 24 hours; unit assumed
Experimental: as §1, §2, §3

[14] = tested on: Candida albicans CCH 442; details: organism code TT; BHI agar, 35-37° C., 20 to 24 hours; unit assumed
Experimental: as §1, §2, §3

[15] = tested on: Escherichia coli DC-2; details: organism code SS; BHI agar, 35-37° C., 20 to 24 hours; unit assumed
Experimental: as §1, §2, §3

[16] = tested on: Staphylococcus aureus NCTC10649M; details: organism code EE; BHI agar, 35-37° C., 20 to 24 hours; unit assumed
Experimental: as §1, §2, §3

[17] = tested on: Staphylococcus aureus CMX 642A; details: organism code DD; BHI agar, 35-37° C., 20 to 24 hours; unit assumed
Experimental: as §1, §2, §3

[18] = tested on: Haemophilis Influenzae DILL AMP R; details: organism code WW; BHI agar, 35-37° C., 20 to 24 hours; unit assumed
Experimental: as §1, §2, §3

[19] = tested on: Staphylococcus aureus ATCC 6538P; details: organism code AA; BHI agar, 35-37° C., 20 to 24 hours; unit assumed
Experimental: as §1, §2, §3

[20] = tested on: Staphylococcus aureus CMX 553; details: organism code FF; BHI agar, 35-37° C., 20 to 24 hours; unit assumed
Experimental: as §1, §2, §3

[21] = tested on: Staphylococcus aureus A5177; details: organism code BB; BHI agar, 35-37° C., 20 to 24 hours; unit assumed
Experimental: as §1, §2, §3

[22] = tested on: Staphylococcus aureus 1775; details: organism code GG; BHI agar, 35-37° C., 20 to 24 hours; unit assumed
Experimental: as §1, §2, §3

[23] = tested on: Streptococcus Pneumonia 5649; details: organism code ZZA; BHI agar, 35-37° C., 20 to 24 hours; unit assumed
Experimental: as §1, §2, §3

[24] = tested on: Streptococcus pyogenes EES61; details: organism code LL; BHI agar, 35-37° C., 20 to 24 hours; unit assumed
Experimental: as §1, §2, §3

[25] = tested on: Streptococcus Pneumonia GYR 1171; details: organism code YY; BHI agar, 35-37° C., 20 to 24 hours; unit assumed
Experimental: as §1, §2, §3

[26] = tested on: Micrococcus luteus ATCC 9341; details: organism code OO; BHI agar, 35-37° C., 20 to 24 hours; unit assumed
Experimental: as §1, §2, §3

[27] = tested on: Enterococcus faecium ATCC 8043; details: organism code II; BHI agar, 35-37° C., 20 to 24 hours; unit assumed
Experimental: as §1, §2, §3

CC[C@H]1OC(=O)[C@H](C)C(=O)[C@H](C)[C@@H](O[C@@H]2O[C@H](C)C[C@H](N(C)C)[C@H]2O)[C@](C)(OCC#Cc2ccc(-c3cccc(F)c3)s2)C[C@@H](C)C(=O)[C@H](C)[C@H]2NC(=O)O[C@@]21C [Example 15]
MIC [1]: 50 µg/mL (≈ 61.5 µM) | MIC [2]: 0.39 µg/mL (≈ 0.48 µM) | MIC [3]: 0.05 µg/mL (≈ 0.0615 µM) | MIC [4]: 0.2 µg/mL (≈ 0.246 µM) | MIC [5]: 0.2 µg/mL (≈ 0.246 µM) | MIC [6]: 0.25 µg/mL (≈ 0.308 µM) | MIC [7]: 0.1 µg/mL (≈ 0.123 µM) | MIC [8]: 0.39 µg/mL (≈ 0.48 µM) | MIC [9]: 3.1 µg/mL (≈ 3.81 µM) | MIC [10]: 0.05 µg/mL (≈ 0.0615 µM) | MIC [11]: > 100 µg/mL | MIC [12]: 0.015 µg/mL (≈ 0.0185 µM) | MIC [13]: 0.2 µg/mL (≈ 0.246 µM) | MIC [14]: > 100 µg/mL | MIC [15]: > 100 µg/mL | MIC [16]: 0.2 µg/mL (≈ 0.246 µM) | MIC [17]: 0.2 µg/mL (≈ 0.246 µM) | MIC [18]: 2 µg/mL (≈ 2.46 µM) | MIC [19]: 0.1 µg/mL (≈ 0.123 µM) | MIC [20]: 0.1 µg/mL (≈ 0.123 µM) | MIC [21]: 0.1 µg/mL (≈ 0.123 µM) | MIC [22]: 50 µg/mL (≈ 61.5 µM) | MIC [23]: 0.25 µg/mL (≈ 0.308 µM) | MIC [24]: 0.05 µg/mL (≈ 0.0615 µM) | MIC [25]: 0.015 µg/mL (≈ 0.0185 µM) | MIC [26]: 0.05 µg/mL (≈ 0.0615 µM)

CC[C@H]1OC(=O)[C@H](C)C(=O)[C@H](C)[C@@H](O[C@@H]2O[C@H](C)C[C@H](N(C)C)[C@H]2O)[C@](C)(OC/C=C/c2cncc(-c3cccnc3)c2)C[C@@H](C)C(=O)[C@H](C)[C@H]2NC(=O)O[C@@]21C [Example 47]
MIC [1]: > 100 µg/mL | MIC [2]: 0.39 µg/mL (≈ 0.492 µM) | MIC [3]: 0.01 µg/mL (≈ 0.0126 µM) | MIC [4]: 0.1 µg/mL (≈ 0.126 µM) | MIC [5]: 0.2 µg/mL (≈ 0.252 µM) | MIC [6]: > 128 µg/mL | MIC [7]: 0.2 µg/mL (≈ 0.252 µM) | MIC [8]: 0.78 µg/mL (≈ 0.984 µM) | MIC [9]: 50 µg/mL (≈ 63.1 µM) | MIC [10]: 0.01 µg/mL (≈ 0.0126 µM) | MIC [11]: 50 µg/mL (≈ 63.1 µM) | MIC [12]: 0.008 µg/mL (≈ 0.0101 µM) | MIC [27]: 0.05 µg/mL (≈ 0.0631 µM) | MIC [13]: 0.05 µg/mL (≈ 0.0631 µM) | MIC [14]: > 100 µg/mL | MIC [15]: 25 µg/mL (≈ 31.5 µM) | MIC [16]: 0.1 µg/mL (≈ 0.126 µM) | MIC [17]: 0.05 µg/mL (≈ 0.0631 µM) | MIC [19]: 0.05 µg/mL (≈ 0.0631 µM) | MIC [20]: 0.05 µg/mL (≈ 0.0631 µM) | MIC [21]: 0.05 µg/mL (≈ 0.0631 µM) | MIC [22]: > 100 µg/mL | MIC [23]: 0.5 µg/mL (≈ 0.631 µM) | MIC [24]: 0.02 µg/mL (≈ 0.0252 µM) | MIC [25]: 0.008 µg/mL (≈ 0.0101 µM) | MIC [26]: 0.01 µg/mL (≈ 0.0126 µM)
